Measured values reported in patent US20240158348A1, “HERBICIDAL CYCLIC AMIDES N-SUBSTITUTED WITH A HALOALKYLSULFONYLANILIDE GROUP” (FMC Corporation, priority 2021, published 2024).

What was measured:
Assay type in all cases: in vivo
[1] = system: ryegrass, Italian (Italian ryegrass, Lolium multiflorum); assay: Test C postemergence, Italian ryegrass; settings: visual injury, 0 to 100 scale (0 no effect, 100 complete control)
Procedure, shortened: (§1)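 Steps: sow in loam soil blended with sand; treat soil preemergence by directed spray, or treat young plants (2–10 cm, one to two leaves) postemergence; hold in greenhouse 10 or 12 days; rate injury visually relative to untreated controls on a 0–100 scale.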

[2] = system: blackgrass (Alopecurus myosuroides); assay: Test C preemergence, blackgrass; settings: 0 is no effect, 100 is complete control
Procedure, shortened: as §1

[3] = system: wheat (Triticum aestivum); assay: Test C preemergence, wheat; settings: 0 is no effect, 100 is complete control
[4] = system: soybean (Glycine max); assay: Test C preemergence, soybean; settings: 0 is no effect, 100 is complete control
Procedure, shortened: as §1

[5] = system: corn (Zea mays); assay: Test C postemergence, corn; settings: for Corn plant response rating: visual injury, 0 to 100 scale (0 no effect, 100 complete control); for Plant response rating (0 to 100 scale), Corn: 0 is no effect, 100 is complete control
[6] = system: foxtail, giant (giant foxtail, Setaria faberi); assay: Test C preemergence, giant foxtail; settings: 0 is no effect, 100 is complete control
Procedure, shortened: as §1

[7] = system: ragweed (common ragweed, Ambrosia artemisiifolia); assay: Test C preemergence, ragweed; settings: 0 is no effect, 100 is complete control
Procedure, shortened: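 Ratings run from 0, meaning no effect, up to 100, meaning complete control, judged by eye against untreated plants. Treatment was a directed soil spray before emergence or a postemergence spray on 2–10 cm seedlings, with evaluation 10 or 12 days later.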

[8] = system: soybean (Glycine max); assay: Test C postemergence, soybean; settings: visual injury, 0 to 100 scale (0 no effect, 100 complete control)

In the case of `Cc1c(NS(=O)(=O)C(F)(F)F)cc(N2CCCC(OC3CC3)C2=O)c(C)c1F` (stereo not drawn) [Compound 35], the “Ryegrass, Italian plant response rating” value ([1]; 31 g ai/ha Postemergence) is reported as 50, the “Ryegrass, Italian plant response rating” value ([1]; 125 g ai/ha Postemergence) is reported as 60 and the “Plant response rating (0 to 100 scale), Blackgrass” value (from here on “Plant response rating … Blackgrass”) ([2]; 31 g ai/ha Preemergence) is reported as 70. The “Plant response rating … Blackgrass” value ([2]; 125 g ai/ha Preemergence) was 100, the “Plant response rating (0 to 100 scale), Wheat” value (from here on “Plant response rating … Wheat”) ([3]; 31 g ai/ha Preemergence) was 20 and the “Plant response rating … Wheat” value ([3]; 125 g ai/ha Preemergence) was 100. The “Plant response rating (0 to 100 scale), Soybean” value ([4]; 31 g ai/ha Preemergence) was 50, the “Plant response rating (0 to 100 scale), Soybean” value ([4]; 125 g ai/ha Preemergence) was 90 and the “Corn plant response rating” value ([5]; 31 g ai/ha Postemergence) was 50. The “Plant response rating (0 to 100 scale), Corn” value ([5]; 125 g ai/ha Postemergence) was 90, the “Plant response rating (0 to 100 scale), Foxtail, Giant” value (“Plant response rating … Giant” for short) ([6]; 31 g ai/ha Preemergence) was 90 and the “Plant response rating … Giant” value ([6]; 125 g ai/ha Preemergence) was 100. For the same compound, the “Plant response rating (0 to 100 scale), Ragweed” value (from here on “Plant response rating … Ragweed”) ([7]; 31 g ai/ha Preemergence) was 50, the “Plant response rating … Ragweed” value ([7]; 125 g ai/ha Preemergence) was 90 and the “Soybean plant response rating” value ([8]; 31 g ai/ha Postemergence) was 60. The “Soybean plant response rating” value ([8]; 125 g ai/ha Postemergence) was 60.
With `Cc1c(N2CCCC(OC3CC3)C2=O)cc(N(COC(=O)C(C)(C)C)S(=O)(=O)C(F)(F)F)c(C)c1F` (stereo not drawn) [Compound 37] the “Ryegrass, Italian plant response rating” value ([1]; 31 g ai/ha Postemergence) was 0, the “Ryegrass, Italian plant response rating” value ([1]; 125 g ai/ha Postemergence) was 60 and the “Plant response rating … Blackgrass” value ([2]; 31 g ai/ha Preemergence) was 10. For the same compound, the “Plant response rating … Blackgrass” value ([2]; 125 g ai/ha Preemergence) was 60, the “Plant response rating … Wheat” value ([3]; 31 g ai/ha Preemergence) was 0 and the “Plant response rating … Wheat” value ([3]; 125 g ai/ha Preemergence) was 20. For the same compound, the “Plant response rating (0 to 100 scale), Soybean” value ([4]; 31 g ai/ha Preemergence) was 0, the “Plant response rating (0 to 100 scale), Soybean” value ([4]; 125 g ai/ha Preemergence) was 30 and the “Corn plant response rating” value ([5]; 31 g ai/ha Postemergence) was 10. The “Plant response rating (0 to 100 scale), Corn” value ([5]; 125 g ai/ha Postemergence) was 90, the “Plant response rating … Giant” value ([6]; 31 g ai/ha Preemergence) was 20 and the “Plant response rating … Giant” value ([6]; 125 g ai/ha Preemergence) was 90. The “Plant response rating … Ragweed” value ([7]; 31 g ai/ha Preemergence) was 0, the “Plant response rating … Ragweed” value ([7]; 125 g ai/ha Preemergence) was 90 and the “Soybean plant response rating” value ([8]; 31 g ai/ha Postemergence) was 60. The “Soybean plant response rating” value ([8]; 125 g ai/ha Postemergence) was 70.
For `CC(=O)N(c1cc(N2CCC(OC3CC3)C2=O)c(C)cc1Cl)S(=O)(=O)C(F)(F)F` (stereo not drawn) [Compound 38], the “Ryegrass, Italian plant response rating” value ([1]; 31 g ai/ha Postemergence) was 30, the “Ryegrass, Italian plant response rating” value ([1]; 125 g ai/ha Postemergence) was 70 and the “Plant response rating … Blackgrass” value ([2]; 31 g ai/ha Preemergence) was 80. For the same compound, the “Plant response rating … Blackgrass” value ([2]; 125 g ai/ha Preemergence) was 90, the “Plant response rating … Wheat” value ([3]; 31 g ai/ha Preemergence) was 40 and the “Plant response rating … Wheat” value ([3]; 125 g ai/ha Preemergence) was 90. The “Plant response rating (0 to 100 scale), Soybean” value ([4]; 31 g ai/ha Preemergence) was 80, the “Plant response rating (0 to 100 scale), Soybean” value ([4]; 125 g ai/ha Preemergence) was 90 and the “Corn plant response rating” value ([5]; 31 g ai/ha Postemergence) was 80. For the same compound, the “Plant response rating (0 to 100 scale), Corn” value ([5]; 125 g ai/ha Postemergence) was 90, the “Plant response rating … Giant” value ([6]; 31 g ai/ha Preemergence) was 80 and the “Plant response rating … Giant” value ([6]; 125 g ai/ha Preemergence) was 100. The “Plant response rating … Ragweed” value ([7]; 31 g ai/ha Preemergence) was 70, the “Plant response rating … Ragweed” value ([7]; 125 g ai/ha Preemergence) was 90 and the “Soybean plant response rating” value ([8]; 31 g ai/ha Postemergence) was 70. For the same compound, the “Soybean plant response rating” value ([8]; 125 g ai/ha Postemergence) was 80.
In the case of `Cc1c(N2CCCC(OC3CCC3)C2=O)cc(N(COC(=O)C(C)(C)C)S(=O)(=O)C(F)(F)F)c(C)c1F` (stereo not drawn) [Compound 39], the “Ryegrass, Italian plant response rating” value ([1]; 31 g ai/ha Postemergence) is reported as 0, the “Ryegrass, Italian plant response rating” value ([1]; 125 g ai/ha Postemergence) is reported as 30 and the “Plant response rating … Blackgrass” value ([2]; 31 g ai/ha Preemergence) is reported as 0. For the same compound, the “Plant response rating … Blackgrass” value ([2]; 125 g ai/ha Preemergence) was 20, the “Plant response rating … Wheat” value ([3]; 31 g ai/ha Preemergence) was 0 and the “Plant response rating … Wheat” value ([3]; 125 g ai/ha Preemergence) was 0. The “Plant response rating (0 to 100 scale), Soybean” value ([4]; 31 g ai/ha Preemergence) was 0, the “Plant response rating (0 to 100 scale), Soybean” value ([4]; 125 g ai/ha Preemergence) was 60 and the “Corn plant response rating” value ([5]; 31 g ai/ha Postemergence) was 0. The “Plant response rating (0 to 100 scale), Corn” value ([5]; 125 g ai/ha Postemergence) was 10, the “Plant response rating … Giant” value ([6]; 31 g ai/ha Preemergence) was 0 and the “Plant response rating … Giant” value ([6]; 125 g ai/ha Preemergence) was 10. For the same compound, the “Plant response rating … Ragweed” value ([7]; 31 g ai/ha Preemergence) was 0, the “Plant response rating … Ragweed” value ([7]; 125 g ai/ha Preemergence) was 80 and the “Soybean plant response rating” value ([8]; 31 g ai/ha Postemergence) was 50. For the same compound, the “Soybean plant response rating” value ([8]; 125 g ai/ha Postemergence) was 90.
For `COC(=O)N(c1cc(N2CCC(OC3CC3)C2=O)c(C)cc1Cl)S(=O)(=O)C(F)(F)F` (stereo not drawn) [Compound 40], the “Ryegrass, Italian plant response rating” value ([1]; 31 g ai/ha Postemergence) was 60, the “Ryegrass, Italian plant response rating” value ([1]; 125 g ai/ha Postemergence) was 80 and the “Plant response rating … Blackgrass” value ([2]; 31 g ai/ha Preemergence) was 50. For the same compound, the “Plant response rating … Blackgrass” value ([2]; 125 g ai/ha Preemergence) was 90, the “Plant response rating … Wheat” value ([3]; 31 g ai/ha Preemergence) was 60 and the “Plant response rating … Wheat” value ([3]; 125 g ai/ha Preemergence) was 100. For the same compound, the “Plant response rating (0 to 100 scale), Soybean” value ([4]; 31 g ai/ha Preemergence) was 70, the “Plant response rating (0 to 100 scale), Soybean” value ([4]; 125 g ai/ha Preemergence) was 90 and the “Corn plant response rating” value ([5]; 31 g ai/ha Postemergence) was 80. The “Plant response rating (0 to 100 scale), Corn” value ([5]; 125 g ai/ha Postemergence) was 100, the “Plant response rating … Giant” value ([6]; 31 g ai/ha Preemergence) was 100 and the “Plant response rating … Giant” value ([6]; 125 g ai/ha Preemergence) was 100. The “Plant response rating … Ragweed” value ([7]; 31 g ai/ha Preemergence) was 70, the “Plant response rating … Ragweed” value ([7]; 125 g ai/ha Preemergence) was 90 and the “Soybean plant response rating” value ([8]; 31 g ai/ha Postemergence) was 70. The “Soybean plant response rating” value ([8]; 125 g ai/ha Postemergence) was 80.
`Cc1cc(C)c(N2CCC(OCC3CC3(F)F)C2=O)cc1NS(=O)(=O)C(F)(F)F` (stereo not drawn) [Compound 41] was tested, and the “Ryegrass, Italian plant response rating” value ([1]; 31 g ai/ha Postemergence) was 30, the “Ryegrass, Italian plant response rating” value ([1]; 125 g ai/ha Postemergence) was 100 and the “Plant response rating … Blackgrass” value ([2]; 31 g ai/ha Preemergence) was 80. For the same compound, the “Plant response rating … Blackgrass” value ([2]; 125 g ai/ha Preemergence) was 100, the “Plant response rating … Wheat” value ([3]; 31 g ai/ha Preemergence) was 90 and the “Plant response rating … Wheat” value ([3]; 125 g ai/ha Preemergence) was 100. For the same compound, the “Plant response rating (0 to 100 scale), Soybean” value ([4]; 31 g ai/ha Preemergence) was 60, the “Plant response rating (0 to 100 scale), Soybean” value ([4]; 125 g ai/ha Preemergence) was 100 and the “Corn plant response rating” value ([5]; 31 g ai/ha Postemergence) was 40. The “Corn plant response rating” value ([5]; 125 g ai/ha Postemergence) was 90, the “Plant response rating … Giant” value ([6]; 31 g ai/ha Preemergence) was 100 and the “Plant response rating … Giant” value ([6]; 125 g ai/ha Preemergence) was 100. The “Plant response rating … Ragweed” value ([7]; 31 g ai/ha Preemergence) was 70, the “Plant response rating … Ragweed” value ([7]; 125 g ai/ha Preemergence) was 90 and the “Soybean plant response rating” value ([8]; 31 g ai/ha Postemergence) was 90. For the same compound, the “Soybean plant response rating” value ([8]; 125 g ai/ha Postemergence) was 90.
